Experimental data published in publication PMC11520371 (Journal of Pharmaceutical Health Care and Sciences, 2024).

Experiments:
[1] = Plasma concentrations measured by UPLC-MSMS in the case patient; assay type: in vivo, human
Description: The patient had pancreatic cancer and was admitted to Hirosaki University hospital to undergo a pancreatoduodenectomy. Written informed consent was obtained from this patient for the measurement of each biomarker and polymorphisms of pharmacokinetics-related genes. […] This regimen involved taking CAM 400 mg twice per day after breakfast and supper, RFP 450 mg once per day after breakfast, and ethambutol 750 mg once per day.

albumin = conditions: cited from earlier work
[2] = cited from earlier work
[3] = test system: P-glycoprotein (P-gp; gene code ABCB1); conditions: cited from earlier work
[4] = test system: organic anion transporting polypeptide 1B1 (OATP1B1; SLCO1B1); conditions: cited from earlier work

| concentration at 26 h ([1]; male, human, in vivo, 30 mg/day, POD131, 26 h after last edoxaban tablet (C0h), edoxaban 30 mg/day, outpatient follow-up) | concentration at 2 h ([1]; male, human, in vivo, 30 mg/day, POD233, 2 h after last edoxaban tablet (C2h), edoxaban 30 mg/day, outpatient follow-up) | concentration at 24 h ([1]; male, human, in vivo, 60 mg once per day, POD9, 24 h after last edoxaban tablet (trough, C0h), edoxaban 60 mg once per day with RFP and CAM, onset of AKI) | concentration at 8 h ([1]; male, human, in vivo, 60 mg once per day, POD10, 8 h after last edoxaban tablet (C8h), edoxaban 60 mg once per day with RFP and CAM, AKI) | concentration at 24 h ([1]; male, human, in vivo, 60 mg once per day, POD11, 24 h after last edoxaban tablet (trough, C0h), AKI) | concentration at 96 h ([1]; male, human, in vivo, 60 mg once per day, POD14, 96 h after last edoxaban tablet) | Plasma concentration of valsartan ([1]; POD6) | Plasma concentration of valsartan ([1]; POD9) | Plasma concentration of valsartan ([1]; POD11) | Plasma concentration of valsartan ([1]; POD131) | concentration at 10 postoperative day ([1]; male, human, plasma, POD10, read-out: Plasma concentration of valsartan) | concentration at 14 postoperative day ([1]; male, human, plasma, POD14, read-out: Plasma concentration of valsartan) | SMILES | albumin binding rate (albumin) | absorbed drug excreted in its unchanged form through the kidneys [2] | bioavailability [2] | substrate of P-glycoprotein [3] | substrate of OATP1B1 [4] | unchanged valsartan excreted in the urine [2] |
| --- | --- | --- | --- | --- | --- | --- | --- | --- | --- | --- | --- | --- | --- | --- | --- | --- | --- | --- |
| < 5 ng/mL | 413 ng/mL | 131 ng/mL | 796 ng/mL | 116 ng/mL | < 5 ng/mL |  |  |  |  |  |  | CN1CCc2nc(C(=O)N[C@@H]3C[C@@H](C(=O)N(C)C)CC[C@@H]3NC(=O)C(=O)Nc3ccc(Cl)cn3)sc2C1 [edoxaban] | 55% | approximately 50% | approximately 62% | substrate | not an OATP1B1 substrate |  |
|  |  |  |  |  |  | 2400 ng/mL | 5700 ng/mL | 10400 ng/mL | 1000 ng/mL | 9400 ng/mL | 1400 ng/mL | CCCCC(=O)N(Cc1ccc(-c2ccccc2-c2nnn[nH]2)cc1)[C@H](C(=O)O)C(C)C [valsartan] |  |  |  |  |  | 13% |
